Source: patent US11230525B2, “Organic sulfur compound, method for preparing same, and pharmaceutical composition for preventing or treating cancer or an inflammatory disease, containing same as active ingredient” (SOOKMYUNG WOMENS UNIVERSITY INDUSTRY-ACADEMIC COOPERATION …, priority 2016, dated 2022)
Read-outs that look alike come from different tables or passages of the source.

Columns and labels:
[1] = tested on: colorectal cancer cell line (HCT-15); assay: Cancer proliferation inhibitory activity (SRB, GI50), HCT-15; type: cell-based; settings: Homo sapiens, 48 hours
Summary of the method: (§1)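 Human tumour cells in serum-supplemented RPMI 1640 received test compound (0.1 μM to 10 μM; untreated wells had 0.1% DMSO). Two days later they were TCA-fixed and SRB-stained, dye absorbance at 540 nm was recorded, and growth inhibition was expressed as GI50.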

[2] = tested on: prostate cancer cell line (PC-3); assay: Cancer proliferation inhibitory activity (SRB, GI50), PC-3; type: cell-based; settings: Homo sapiens, 48 hours
Summary of the method: as §1

HDAC 8 = molecular target: T1, HDAC 8 (Homo sapiens, UniProt Q9BY41); assay: HDAC enzyme fluorescence assay, HDAC 8; type: biochemical; set-up: Inhibitory activity (%) HDAC 8: concentration or dose not given beside the values; settings: for Inhibitory activity (%) HDAC 8: (HDAC inhibitory activity of example compound/HDAC inhibitory activity of SAHA) × 100
T1 sequence (Q9BY41 1-377): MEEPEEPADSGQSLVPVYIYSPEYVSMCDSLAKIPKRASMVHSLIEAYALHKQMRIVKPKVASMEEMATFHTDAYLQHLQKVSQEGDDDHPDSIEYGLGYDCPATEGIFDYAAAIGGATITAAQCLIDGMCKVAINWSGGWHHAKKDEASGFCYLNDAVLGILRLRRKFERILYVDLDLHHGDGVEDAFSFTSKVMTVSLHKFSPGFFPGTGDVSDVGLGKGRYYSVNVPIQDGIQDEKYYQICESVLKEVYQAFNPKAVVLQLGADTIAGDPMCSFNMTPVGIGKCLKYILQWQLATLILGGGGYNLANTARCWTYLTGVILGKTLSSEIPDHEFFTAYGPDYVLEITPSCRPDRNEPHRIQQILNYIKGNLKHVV
Summary of the method: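 Recombinant HDAC8 preincubated 10 min with compound in 25 mM HEPES pH 8.0, 137 mM NaCl, 1 mM MgCl2, 2.7 mM KCl, then Boc-Lys(acetyl)-AMC added at 37° C (level and time set per isoform). Trypsin development 20 min at room temperature, fluorescence 380/460 nm; activity expressed as percent relative to SAHA reference.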

HDAC 1 = HDAC 1 (Homo sapiens, UniProt Q13547); assay: HDAC enzyme fluorescence assay, HDAC 1; type: biochemical; settings: recombinant HDAC enzyme, Boc-Lys(acetyl)-AMC
Protocol: Particularly, HDAC enzyme analysis was performed based on a uniform fluorescence emission assay. First, the compounds of examples of the present invention or comparative example 1 were diluted at different concentrations, which were treated to the analysis buffer containing 25 mM HEPES (pH 8.0), 137 mM NaCl, 1 mM MgCl2 and 2.7 mM KCL, followed by culture of the recombinant HDAC enzyme. 10 minutes later, Boc-Lys(acetyl)-AMC, the fluorescence inducing substrate, was added thereto, followed by further culture at 37° C. At this time, the concentration of the fluorescence inducing substrate and the culture time were adjusted according to the isotypes of the HDAC enzyme. The reaction was terminated by treating trypsin at room temperature for 20 minutes. The fluorescence intensity was measured using a fluorescence analyzer at an excitation wavelength of 380 nm and an emission wavelength of 460 nm, respectively. The inhibition rate was calculated from the measured fluorescence intensity of each well with comparing to that of the control well. IC50 of the compound was calculated by analyzing the dose-reaction inhibition curve.

[3] = tested on: renal cancer cell line (ACHN); assay: Cancer proliferation inhibitory activity (SRB, GI50), ACHN; type: cell-based; settings: Homo sapiens, 48 hours
Summary of the method: as §1

[4] = tested on: gastric cancer cell line (NUGC-3); assay: Cancer proliferation inhibitory activity (SRB, GI50), NUGC-3; type: cell-based; settings: Homo sapiens, 48 hours
Summary of the method: as §1

[5] = tested on: PC-3 cells, human prostate cancer cells; assay: Anticancer activity in prostate cancer xenograft model; type: in vivo, mice; settings: for tumor size / cancer proliferation (FIGS. 2, 3): 50 mg/kg (SAHA 100 mg/kg) once a day for 16 days, compared with the non-treated group
Protocol: Particularly, 9×10^6 PC-3 cells, human prostate cancer cells, were inoculated subcutaneously to the right side of female BALB/c nu/nu mice at 5 weeks of age (Nara Biotech, Seoul, Republic of Korea).
When the tumor size reached 40-60 mm^3, the mice were randomly grouped (4 mice per group), which were the non-treated group (10% dimethylacetamide, 10% tween 80 and 80% distilled water), the groups treated with the compounds of comparative examples 1 and 2 (Ajoene, 50 mg/kg), the groups treated with the compounds of examples 18 and 32 (50 mg/kg), and the group treated with the positive control SAHA (Vorinostat, 100 mg/kg). The treatment was performed once a day for 16 days in total. During the treatment, the tumor size was measured with a vernier caliper, followed by evaluation according to the following formula: length (mm)×width (mm)×height (mm)/2. The weights were measured regularly.
Upon completion of the treatment (16 days later), the mice were sacrificed and the tumor weights were measured. All the experiments were performed according to the experiment protocol approved by Institutional Animal care and Use Committee (IACUC), Korea Research Institute of Bioscience and Biotechnology (KRIBB).

HDAC 1, sequence (Q13547 whole entry, species assumed): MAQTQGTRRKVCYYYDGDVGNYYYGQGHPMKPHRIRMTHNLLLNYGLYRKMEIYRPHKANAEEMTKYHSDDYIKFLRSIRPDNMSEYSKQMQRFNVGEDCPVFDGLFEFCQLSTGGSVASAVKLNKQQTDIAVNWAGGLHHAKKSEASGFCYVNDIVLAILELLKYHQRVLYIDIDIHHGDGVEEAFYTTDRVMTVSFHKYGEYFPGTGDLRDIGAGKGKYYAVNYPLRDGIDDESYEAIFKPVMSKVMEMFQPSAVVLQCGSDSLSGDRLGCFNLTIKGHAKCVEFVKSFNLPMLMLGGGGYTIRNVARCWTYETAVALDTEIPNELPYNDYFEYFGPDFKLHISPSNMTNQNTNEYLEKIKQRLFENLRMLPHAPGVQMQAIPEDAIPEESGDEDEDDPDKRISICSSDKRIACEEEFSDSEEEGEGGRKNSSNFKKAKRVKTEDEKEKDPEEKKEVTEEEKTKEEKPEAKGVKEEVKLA

| SMILES | GI50 [1] [nM] | GI50 [2] [nM] | Inhibitory activity (%) HDAC 8 (HDAC 8) [%] | IC50 (HDAC 8; recombinant HDAC enzyme, Boc-Lys(acetyl)-AMC, read-out: IC50 HDAC 8) [nM] | IC50 (HDAC 1) [µM] | GI50 [3] [nM] | GI50 [4] [nM] | tumor size / cancer proliferation (FIGS. 2, 3) [5] | IC50 (HDAC 8; read-out: IC50 against HDAC 8) [nM] | tumor weight (FIG. 4) ([5]; 50 mg/kg once a day, tumor extracted after 16 days) |
| --- | --- | --- | --- | --- | --- | --- | --- | --- | --- | --- |
| COc1ccc([S+]([O-])C/C=C\SSCc2ccccc2)cc1 (centres unmarked) [Example 32, (Z)-1-benzyl-2-(3-(4-methoxyphenylsulfinyl)prop-1-enyl)disulfane] | 1550 | 3190 | 150.4 | 37 | 4.55 | 3120 | 3820 | cancer proliferation was inhibited | – | – |
| CCCSS/C=C\C[S+]([O-])c1cccc(OC)c1 (centres unmarked) [Example 18, (Z)-1-(3-(3-methoxyphenylsulfinyl)prop-1-enyl)-2-propyldisulfane] | 1340 | 1920 | 147.2 | – | 3.52 | 2060 | 1710 | inhibit cancer proliferation similarly to the positive control SAHA | 35 | lighter than the tumor weight in the non-treated group |
